Test results as given in patent US20040038958A1, “Topical treatment of skin diseases” (priority 2002, published 2004).
Where “and” joins values, the source holds several entries; their conditions need not be identical. Equal entries are not always repeated. Entries after “also recorded” stand apart in the source; their conditions may differ.

How the values were obtained:
PDE4 = details: Griswold et al., 1998, Kuss et al., 2002; cited from earlier work
[1] = system: granulocyte influx in the dermis of mice ears; assay: Histological examination of mouse ear skin after TDI challenge; type: in vivo, BALB/c-mice
Method: (§1) One part of the collected ears was fixed in 4% formaldehyde for histological section and stained with haematoxylin-eosin with respect to dermal thickness and granulocyte accumulation. These parameters were measured in 10 fields at 40 times magnification. The remaining tissue was shock-frozen and stored in liquid nitrogen immediately after sampling. For the determination of biochemical parameters, the mice ears were homogenized under liquid nitrogen. The homogenates were taken in 200 μl RPMI 1640 medium and the protease inhibitor Pefabloc® (1 mmol) was added and the samples were mixed intensively. After centrifugation (10000 g, 10 min, 4° C.), the supernatant was collected and the protein content was determined. The samples were stored at −80° C. until the cytokines were determined. Interleukin (IL) 4, IL-6 and MIP-2 were measured in the samples by ELISA using commercially available kits according to manufacturers instructions.

mice sensitized to TDI = assay: Mouse ear swelling test in mice sensitized to toluene-2,4-diisocyanate (TDI), topical application; type: in vivo, BALB/c-mice; details: for TDI-induced ear swelling: AWD 12-281 1%, cilomilast 3%, diflorasone 0.05%
Method: FIG. 6: Effect of PDE 4 inhibitors on TDI induced ear swelling in mice. […] After 1 h (grey bars) groups of mice were treated with 3% AWD 12-281, 10% cilomilast or left untreated (TDI). After 24 h, ear swelling was determined (black bars). […] Female BALB/c-mice were obtained from Charles River (Sulzfeld, Germany) at the age of 8 weeks (20 g body weight). All animals were healthy and were housed in groups of six mice per cage at 22° C. with a 12-h light/dark-cycle. Water and a standard diet (Altromin, […], Germany) were available ad libitum. After settling in for 1 week, the abdominal skin of the mice was shaved and depilated with Veet®. Subsequently, the horny layers of the abdominal skin were stripped off ten times with adhesive tapes. […] Before as well as 24 h after challenge, the ear thickness was measured with a cutimeter (model 7309, Mitutoyo, Neuss, Germany) The swelling was calculated by comparison of the values before challenge with 24 h after challenge. […] The other mice were equally distributed to the treatment groups (n=6) according to their swelling intensity, so that each group contained animals which had responded to varying extents. They had to rest until the ear thickness had reached almost a normal level after 7 days. To exclude residues of the allergen on the ears, the untreated right ears were used for the main experiment. One group of mice (n=6) was not sensitized and challenged. […] Two hours before TDI-challenge, the third and fourth group (each n=6) were treated with 20 μl (10 μl on both, the inner and outer surface) AWD 12-281 (1%=200 μg) or 20 μl cilomilast (3%=600 μg; each in acetone/DMSO 9:1) to the right ears. […] These mice were sacrificed by cervical dislocation 24 hours after TDI challenge and the ears were collected (see below). […] Five weeks after the first challenge, the animals treated with AWD 12-281 (1%) and cilomilast (3%) “therapeutically” were challenged again. Before challenge, one group was treated with AWD 12-281 (3%).

[2] = Penetration of 14C AWD 12-281 through murine back skin (Franz diffusion cell); type: in vitro ADME, mouse
Method: FIG. 1: Cutaneous permeation of ^14C AWD 12-281 measured using a “Franz” diffusion cell and murine back skin. Activity of ^14C AWD 12-281 was measured in […] during 360 min incubation. Results of two independent experiments. 15 μl (110322970 dpm) of ^14C AWD 12-281 (dissolved in acetone/DMSO 1:1) was applied to the shaved skin.
The ability of ^14C AWD 12-281 to penetrate through murine back skin was tested in a diffusion cell (Franz cell). Dry shaved murine back skin was set onto the diffusion cell so that 1.5 cm (diameter) of the dermal side were in contact with warmed (34° C.) buffer (bovine serum). 15 μl (110322970 dpm) of ^14C AWD 12-281 (dissolved in acetone/DMSO 1:1) were applied to the shaved skin. Samples were taken 15, 60, 120, 180, 240, 300, 360 min and the radioactivity was measured in a β counter (Beckman, Munich, Germany). The experiment was performed twice.

[3] = system: passively sensitized human airways; details: Schmidt et al., 2000; cited from earlier work
[4] = system: mice sensitized to TDI (long term exposure); assay: TDI induced ear swelling after long term (120 days) repeated exposure sensitization; type: in vivo; details: 120 days sensitization, AWD 12-281 3% 1 h after challenge
Method: FIG. 4: Effect of AWD 12-281 on TDI induced ear swelling in mice sensitized to TDI using a long term (120 days) repeated exposure sensitization paradigm. Bars represent ear swelling 1, 5 and 24 h after TDI challenge.
Furthermore, an experiment was carried out to obtain information on the therapeutic effects of AWD 12-281 in a model of long term exposure to TDI. Thus 10 mice were treated with 100 μl 0.5% TDI on the abdominal skin in intervals of 10 days for 120 days. Ten days after the last abdominal TDI treatment, mice were challenged on the left ear with 20 μl 0.5% TDI, split in 10 μl onto the outer and inner surface of the ear, respectively. One hour after TDI challenge 5 mice were treated with AWD 12-281 (3%), 5 mice were sham treated. Before as well as 1, 5 and 24 h after challenge, the ear thickness was measured.

human eosinophils = details: in vitro; Ezeamuzie, 2001; cited from earlier work
domestic pigs = details: Kuss et al., 2002; cited from earlier work
interleukin 6 = assay: IL-6 in homogenized mouse ears after TDI challenge (ELISA); type: in vivo, BALB/c-mice
Method: as §1

[5] = system: human cells from nasal polyps; details: antigen stimulated; Kuss et al., 2002; cited from earlier work

SMILES: O=C(Nc1c(Cl)cncc1Cl)C(=O)c1cn(Cc2ccc(F)cc2)c2ccc(O)cc12 [AWD 12-281, N-(3,5-Dichloro-4-pyridinyl)-2-[1-(4-fluoro-benzyl)-5-hydroxy-1 H-indol-3-yl]-2-oxoacetamide]
- IC50 for PDE4 relative to cilomilast (PDE4): about ten times lower than that of cilomilast
- inflammatory cells and vascular leakage, histological examination ([1]; AWD 12-281 (3%) treated mouse ears, long term exposure study (not shown)): nearly total absense of inflammatory cells and vascular leakage
- edema and influx of inflammatory cells (mainly granulocytes) ([1]; mouse ear skin 24 h after TDI challenge, topical treatment): inhibited these inflammatory processes markedly
- Ear swelling (%) (mice sensitized to TDI; AWD 12-281 3% topical before challenge, rechallenge five weeks after first challenge, 24 h after TDI challenge, vehicle control 51 ± 7, mean ± s.e.): 1 ± 2 %
- TDI-induced ear swelling (mice sensitized to TDI; single topical application 2 h before TDI challenge, 1, 5 and 24 h after challenge): inhibited the TDI-induced swelling significantly at all measured times
- TDI-induced ear swelling (mice sensitized to TDI; topical 1 h after TDI challenge (therapeutic), 24 h after challenge): reduced the inflammatory response to TDI significantly; also recorded: inhibited the TDI induced ear swelling significantly
- TDI-induced ear swelling (mice sensitized to TDI; topical 1 h after TDI challenge (therapeutic), 24 h after challenge, listed as AWD12-281): significant inhibition of ear swelling
- TDI induced ear swelling (mice sensitized to TDI; treated 1 h after 0.5% TDI, 3% AWD 12-281, 10% cilomilast, ear swelling after 24 h (FIG. 6)): reduced ear swelling significantly
- amount of radioactivity measured in buffer, % of the total activity (cumulative absorption) ([2]; 14C AWD 12-281 in acetone/DMSO 1:1 on shaved murine back skin, 360 min (6 h) after application, two independent experiments): 0.22% and 0.08%
- absorption compared to hydrocortisone ([2]; AWD 12-281 murine skin after 6 h vs hydrocortisone in human skin in Franz cells (Hueber et al., 1994)): tenfold higher absorption compared to hydrocortisone
- bronchospasmogenic effect of an allergen [3]: significantly reduced the bronchospasmogenic effect of an allergen
- TDI induced ear swelling ([4]; 1 and 5 h after challenge): no significant difference between the groups
- TDI induced ear swelling ([4]; 5 h after challenge): slight inhibition
- TDI induced ear swelling ([4]; 24 h after challenge): nearly abolished the TDI induced swelling; also recorded: inhibited the swelling significantly
- degranulation of human eosinophils (human eosinophils): inhibited the degranulation
- LPS induced lung neutrophilia (domestic pigs): inhibitory effects
- concentration of interleukin 6 in mouse skin (interleukin 6; 24 h after TDI challenge, AWD 12-281 3%, rechallenge): inhibited this response significantly
- concentration of interleukin 6 in homogenized mouse ears (interleukin 6; 24 h after TDI challenge, topical 2 h before challenge, AWD 12-281 1%, cilomilast 3%, diflorasone 0.05%): weak significantly; also recorded: inhibited this response significantly; also recorded: only a slight effect
- IL-6, mean inhibition (%) of the TDI induced synthesis (interleukin 6; AWD 12-281 3%, cilomilast 3%, diflorasone 0.05%, 24 h after TDI challenge): 52%
- IL-6 (interleukin 6; AWD 12-281 3%, homogenized mouse ears 24 h after TDI challenge (rechallenge), vehicle control 89 ± 5, mean ± s.e.): 42 ± 6 pg/400 µg protein
- release of inflammatory mediators such as GM-CSF, TNF-α and histamine [5]: inhibited the release of inflammatory mediators
